Test results published in patent publication US20260097111A1, “ETHER LIPIDS FOR HYPERACTIVATION OF MAMMALIAN DENDRITIC CELLS” (priority 2022, published 2026).
“Also recorded” adds a separate entry of the source.

Legend:
FLT3L-DCs = assay: Migration of injected FLT3L-DCs to skin draining lymph nodes; format: in vivo, mice; conditions: DCs stimulated with R848 1 μg/mL and 41 uM lipid, injected SC, 24 hours; FIG. 5; listed as DGP
Experimental: Murine bone marrow-derived FLT3L-DCs hyperactivation for migration assays. BMDCs were harvested on day 8 post differentiation, washed with PBS, and re-plated in FLT3L-containing I10 at a concentration of 1×10^6 cells/mL. For DC hyperactivation, 500 μl of R848 was added at a final concentration of 1 μg/mL, and 500 μl of lipids (DGPC (Compound 1), DGP (Compound 2), DHC (Compound 7) or DHMC (Compound 8) or 22:0 lyso PC) prepared in 4% KP407 was diluted to a final concentration of 41 uM. Cells were incubated for 24 hours at 37° C. on a tube rotator. Twenty-four hours post-stimulation, cells were washed with PBS and stained with CFSE (1:1000) for 30 min at 37° C. in the dark. DCs were then counted and 1.10×10^6 cells were injected subcutaneously (SC) in 100 ul per mouse. 24 hours post-injection, the skin draining lymph nodes (dLN) were dissected. A single cell suspension was prepared, and cells were stained in PBS with Live Dead Fixable dye (ThermoFisher) for 20 min at 4° C. Cells were then washed again and stained for 20 min at 4° C. in MACS buffer (PBS with 1% FCS and 2 mM EDTA) containing the following fluorescently conjugated antibodies: anti-CD11c and anti-I-A/I-E (MHC-II). […] Data were analyzed using FlowJo software (Tree Star). […]

human moDC = assay: IL-1β ELISA, human moDC treated with R848, DGP, MCC950; format: cell-based
Experimental: Monocyte Isolation, Storage, and Differentiation into moDC. Human leukapheresis blood products were freshly obtained from AllCells via same day or overnight shipping at 4° C. Miltenyi StraightFrom Leukopak CD14 MicroBead isolation kits were used according to manufacturer instructions to isolate CD14+ monocytes. Briefly, leukopaks ranging in quantity from 5×10^9 to 1×10^10 total nucleated cells were evenly aliquoted into 50 mL conical tubes. Cells were incubated with CD14 microbeads and then loaded on the MultiMACS using the program “Possel2”. After washing out the negative population, CD14+ cells were eluted from the columns and counted. An aliquot of monocytes was used to stain for purity of cells to ensure that isolated live cells were […] CD11c+CD14+ by flow cytometry. […] Vials were placed in CoolCell freezing containers and placed in a −80° C. freezer and stored no longer than 1 week. Frozen cells were transferred for long-term storage to the vapor phase of a liquid nitrogen freezer until use.
To differentiate monocytes into moDC, vials of cells were taken out of the liquid nitrogen freezer and quickly thawed in a 37° C. water bath. Cells were diluted ten-fold in warmed R10++ media containing 50 units/mL benzonase. R10++ media was composed of RPMI 1640 media containing 10% fetal bovine serum, 50 units/mL penicillin, […] streptomycin, 2 mM L-glutamine, 1 mM sodium pyruvate, […] beta-mercaptoethanol, 10 mM HEPES, and 1% Gibco MEM non-essential amino acids. After gentle mixing by inversion of tubes, cells were incubated at 37° C. for 10 min. Cells were pelleted at 400×g for 5 min and supernatant was aspirated. Cells were resuspended in R10++ media and counted on the MoxiGo by diluting an aliquot in PBS containing a final concentration of 2.5 μg/mL propidium iodide. Cells were plated in T75 culture flasks at 3-6×10^7 cells per flask in a total of 20 mL R10++ media containing a final concentration of 50 ng/mL GM-CSF and 25 ng/mL IL-4. Three days after the start of culture, an additional 10 mL R10++ containing 50 ng/mL GM-CSF and 25 ng/mL IL-4 was added to each flask.
Six days after start of differentiation. R10++ media containing cells were placed into 50 mL conical tubes. Flasks were washed with an additional 10 mL PBS and also collected. […] Cells were resuspended in R10++ media and counted on the MoxiGo by diluting an aliquot in PBS containing a final concentration of 2.5 μg/mL propidium iodide. Cells were then adjusted to 1×10^6 cells/mL in R10++ media.
moDC Treatment. Human moDC were plated at 1×10^5 cells/well in 96-well flat-bottom tissue culture plates in R10++ media by adding 100 μL of cells per well. To each well, a 25 μL solution of R10++ containing 400 ng/mL GM-CSF and 200 ng/mL IL-4 was added.
Lyophilized R848 stocks were prepared as described above and frozen at −80° C. An aliquot of frozen R848 was thawed and further diluted to 11.4 μM in R10++ (4 μg/mL R848). Cell culture conditions receiving R848 treatment had 50 μL added to wells. For wells not receiving R848, 50 μL R10++ was added to wells. Lyophilized MCC950 was prepared as described above and stored at −20° C. MCC950 was further diluted to 40 uM in a prepared R10++ solution containing 11.4 μM R848. Cells receiving R848 and MCC950 treatment had 50 μL added to wells. Final concentrations of R848 and MCC950 in a total 200 μL volume were respectively 2.85 μM and 10 μM.
A4.44% solution of KP407 dissolved in sterile, distilled water was prepared at a temperature of 4° C. […]

In the case of `CCCCCCCCCCCCCCCCCCCCCCOC[C@@H](O)COP(=O)(O)O` [Compound 2, 1-docosyl-sn-glycerol-3-phosphate], the “DC migration from the skin to the dLN” value (FLT3L-DCs) is reported as “significantly enhanced DC migration from the skin to the dLN; also recorded: migration activity was significantly higher than DGPC (Compound 1)”, the “concentration of DGP sufficient in combination with R848 to significantly increase IL-1β secretion” value (human moDC; donor HD94) is reported as 20.6 µM and the “concentration of DGP sufficient in combination with R848 to significantly increase IL-1β secretion” value (human moDC; donor HD95) is reported as 82.5 µM. For the same molecule, the “concentration of DGP sufficient in combination with R848 to significantly increase IL-1β secretion” value (human moDC; donors HD93 and HD96) was “at least 41.3 uM” and the IL-1β (human moDC; without addition of R848, DGP 0-82.5 μM, overnight, FIG. 21) was “less than 100 μg/mL”.
